Source: ChEMBL document CHEMBL1909046, “DrugMatrix in vitro pharmacology data”

target: Cytochrome P450 3A4 (Homo sapiens, UniProt P08684); conditions: bti-tn-5b1-4; further: in other assays of this panel Not Active means under 50% inhibition at 10 µM
Sequence (P08684 whole entry): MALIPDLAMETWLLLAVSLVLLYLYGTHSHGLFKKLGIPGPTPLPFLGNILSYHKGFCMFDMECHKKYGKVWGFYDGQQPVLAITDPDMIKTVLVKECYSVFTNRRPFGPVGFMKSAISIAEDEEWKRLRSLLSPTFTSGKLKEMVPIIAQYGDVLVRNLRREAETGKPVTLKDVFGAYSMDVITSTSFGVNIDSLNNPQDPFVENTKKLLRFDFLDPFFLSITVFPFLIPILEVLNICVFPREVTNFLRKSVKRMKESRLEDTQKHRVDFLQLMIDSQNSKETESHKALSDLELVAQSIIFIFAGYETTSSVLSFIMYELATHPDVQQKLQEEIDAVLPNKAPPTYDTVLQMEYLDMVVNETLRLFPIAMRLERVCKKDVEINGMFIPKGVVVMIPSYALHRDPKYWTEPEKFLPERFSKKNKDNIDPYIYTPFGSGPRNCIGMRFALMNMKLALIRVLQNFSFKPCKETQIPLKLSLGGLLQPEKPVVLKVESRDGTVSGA

SMILES	IC50	Ki
CO/N=C(\C(=O)N[C@@H]1C(=O)N2C(C(=O)O)=C(COC(C)=O)CS[C@H]12)c1csc(N)n1 [CEFOTAXIME]	Not Active	Not Active
CNC1=Nc2ccc(Cl)cc2C(c2ccccc2)=[N+]([O-])C1 [CHLORDIAZEPOXIDE]	Not Active	Not Active
Cc1cc(O)cc(C)c1Cl [CHLOROXYLENOL]	Not Active	Not Active
CCCNC(=O)NS(=O)(=O)c1ccc(Cl)cc1 [CHLORPROPAMIDE]	Not Active	Not Active
NS(=O)(=O)c1cc(C2(O)NC(=O)c3ccccc32)ccc1Cl (stereo not given) [CHLORTHALIDONE]	Not Active	Not Active
O=C(O)CC(O)(CC(=O)O)C(=O)O [CITRIC ACID]	Not Active	Not Active
CN1CCN(C(c2ccccc2)c2ccccc2)CC1 [CYCLIZINE]	Not Active	Not Active
CN1C[C@@H]2C[C@H]1CN2c1cc2c(cc1F)c(=O)c(C(=O)O)cn2C1CC1 [DANOFLOXACIN]	Not Active	Not Active
COc1cccc2c1C(=O)c1c(O)c3c(c(O)c1C2=O)C[C@@](O)(C(C)=O)C[C@@H]3O[C@H]1C[C@H](N)[C@H](O)[C@H](C)O1 [DAUNORUBICIN]	Not Active	Not Active
O=C(O)c1cc(-c2ccc(F)cc2F)ccc1O [DIFLUNISAL]	Not Active	Not Active

test system: not listed separately; test: DRUGMATRIX: Leukotriene, BLT (LTB4) radioligand binding (ligand: [3H]LTB4); format: cell membranes, Membrane; conditions: u-937; Not Active = under 50% inhibition at 10 µM

SMILES	IC50	Ki
CO/N=C(\C(=O)N[C@@H]1C(=O)N2C(C(=O)O)=C(COC(C)=O)CS[C@H]12)c1csc(N)n1 [CEFOTAXIME]	Not Active	Not Active
CNC1=Nc2ccc(Cl)cc2C(c2ccccc2)=[N+]([O-])C1 [CHLORDIAZEPOXIDE]	Not Active	Not Active
Cc1cc(O)cc(C)c1Cl [CHLOROXYLENOL]	Not Active	Not Active
CCCNC(=O)NS(=O)(=O)c1ccc(Cl)cc1 [CHLORPROPAMIDE]	Not Active	Not Active
NS(=O)(=O)c1cc(C2(O)NC(=O)c3ccccc32)ccc1Cl (stereo not given) [CHLORTHALIDONE]	Not Active	Not Active
O=C(O)CC(O)(CC(=O)O)C(=O)O [CITRIC ACID]	Not Active	Not Active
CN1CCN(C(c2ccccc2)c2ccccc2)CC1 [CYCLIZINE]	Not Active	Not Active
CN1C[C@@H]2C[C@H]1CN2c1cc2c(cc1F)c(=O)c(C(=O)O)cn2C1CC1 [DANOFLOXACIN]	Not Active	Not Active
COc1cccc2c1C(=O)c1c(O)c3c(c(O)c1C2=O)C[C@@](O)(C(C)=O)C[C@@H]3O[C@H]1C[C@H](N)[C@H](O)[C@H](C)O1 [DAUNORUBICIN]	Not Active	Not Active
O=C(O)c1cc(-c2ccc(F)cc2F)ccc1O [DIFLUNISAL]	Not Active	Not Active

test system: not listed separately; test: DRUGMATRIX: Glutamate, NMDA, Phencyclidine radioligand binding (ligand: [3H] TCP); format: cell membranes, Rattus norvegicus, Wistar, Cerebral cortex, Membrane; conditions: Not Active = under 50% inhibition at 10 µM

SMILES	IC50	Ki
CO/N=C(\C(=O)N[C@@H]1C(=O)N2C(C(=O)O)=C(COC(C)=O)CS[C@H]12)c1csc(N)n1 [CEFOTAXIME]	Not Active	Not Active
CNC1=Nc2ccc(Cl)cc2C(c2ccccc2)=[N+]([O-])C1 [CHLORDIAZEPOXIDE]	Not Active	Not Active
Cc1cc(O)cc(C)c1Cl [CHLOROXYLENOL]	Not Active	Not Active
CCCNC(=O)NS(=O)(=O)c1ccc(Cl)cc1 [CHLORPROPAMIDE]	Not Active	Not Active
NS(=O)(=O)c1cc(C2(O)NC(=O)c3ccccc32)ccc1Cl (stereo not given) [CHLORTHALIDONE]	Not Active	Not Active
O=C(O)CC(O)(CC(=O)O)C(=O)O [CITRIC ACID]	Not Active	Not Active
CN1CCN(C(c2ccccc2)c2ccccc2)CC1 [CYCLIZINE]	Not Active	Not Active
CN1C[C@@H]2C[C@H]1CN2c1cc2c(cc1F)c(=O)c(C(=O)O)cn2C1CC1 [DANOFLOXACIN]	Not Active	Not Active
COc1cccc2c1C(=O)c1c(O)c3c(c(O)c1C2=O)C[C@@](O)(C(C)=O)C[C@@H]3O[C@H]1C[C@H](N)[C@H](O)[C@H](C)O1 [DAUNORUBICIN]	Not Active	Not Active
O=C(O)c1cc(-c2ccc(F)cc2F)ccc1O [DIFLUNISAL]	Not Active	Not Active

test system: not listed separately; test: DRUGMATRIX: Serotonin (5-Hydroxytryptamine) 5-HT3 radioligand binding (ligand: [3H] GR-65630); format: cell membranes, Membrane; conditions: hek293; Not Active = under 50% inhibition at 10 µM

SMILES	IC50	Ki
CO/N=C(\C(=O)N[C@@H]1C(=O)N2C(C(=O)O)=C(COC(C)=O)CS[C@H]12)c1csc(N)n1 [CEFOTAXIME]	Not Active	Not Active
CNC1=Nc2ccc(Cl)cc2C(c2ccccc2)=[N+]([O-])C1 [CHLORDIAZEPOXIDE]	Not Active	Not Active
Cc1cc(O)cc(C)c1Cl [CHLOROXYLENOL]	Not Active	Not Active
CCCNC(=O)NS(=O)(=O)c1ccc(Cl)cc1 [CHLORPROPAMIDE]	Not Active	Not Active
NS(=O)(=O)c1cc(C2(O)NC(=O)c3ccccc32)ccc1Cl (stereo not given) [CHLORTHALIDONE]	Not Active	Not Active
O=C(O)CC(O)(CC(=O)O)C(=O)O [CITRIC ACID]	Not Active	Not Active
CN1CCN(C(c2ccccc2)c2ccccc2)CC1 [CYCLIZINE]	Not Active	Not Active
CN1C[C@@H]2C[C@H]1CN2c1cc2c(cc1F)c(=O)c(C(=O)O)cn2C1CC1 [DANOFLOXACIN]	Not Active	Not Active
COc1cccc2c1C(=O)c1c(O)c3c(c(O)c1C2=O)C[C@@](O)(C(C)=O)C[C@@H]3O[C@H]1C[C@H](N)[C@H](O)[C@H](C)O1 [DAUNORUBICIN]	Not Active	Not Active
O=C(O)c1cc(-c2ccc(F)cc2F)ccc1O [DIFLUNISAL]	Not Active	Not Active

target: Delta-type opioid receptor (Homo sapiens, UniProt P41143); format: cell membranes, HEK293, Membrane; conditions: hek293; further: in other assays of this panel Not Active means under 50% inhibition at 10 µM
Sequence (P41143 whole entry): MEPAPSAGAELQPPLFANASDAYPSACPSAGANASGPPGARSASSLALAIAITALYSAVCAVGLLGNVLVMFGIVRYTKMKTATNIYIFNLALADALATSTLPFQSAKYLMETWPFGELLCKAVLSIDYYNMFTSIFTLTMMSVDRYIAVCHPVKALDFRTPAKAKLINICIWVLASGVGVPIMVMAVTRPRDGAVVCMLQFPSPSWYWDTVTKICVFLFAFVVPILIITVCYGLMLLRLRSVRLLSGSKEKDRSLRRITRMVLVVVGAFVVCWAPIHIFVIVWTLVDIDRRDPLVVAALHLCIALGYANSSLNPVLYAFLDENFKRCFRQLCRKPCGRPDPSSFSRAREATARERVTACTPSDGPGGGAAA

SMILES	IC50
CO/N=C(\C(=O)N[C@@H]1C(=O)N2C(C(=O)O)=C(COC(C)=O)CS[C@H]12)c1csc(N)n1 [CEFOTAXIME]	Not Active
CNC1=Nc2ccc(Cl)cc2C(c2ccccc2)=[N+]([O-])C1 [CHLORDIAZEPOXIDE]	Not Active
Cc1cc(O)cc(C)c1Cl [CHLOROXYLENOL]	Not Active
CCCNC(=O)NS(=O)(=O)c1ccc(Cl)cc1 [CHLORPROPAMIDE]	Not Active
NS(=O)(=O)c1cc(C2(O)NC(=O)c3ccccc32)ccc1Cl (stereo not given) [CHLORTHALIDONE]	Not Active
O=C(O)CC(O)(CC(=O)O)C(=O)O [CITRIC ACID]	Not Active
CN1CCN(C(c2ccccc2)c2ccccc2)CC1 [CYCLIZINE]	Not Active
CN1C[C@@H]2C[C@H]1CN2c1cc2c(cc1F)c(=O)c(C(=O)O)cn2C1CC1 [DANOFLOXACIN]	Not Active
COc1cccc2c1C(=O)c1c(O)c3c(c(O)c1C2=O)C[C@@](O)(C(C)=O)C[C@@H]3O[C@H]1C[C@H](N)[C@H](O)[C@H](C)O1 [DAUNORUBICIN]	Not Active
O=C(O)c1cc(-c2ccc(F)cc2F)ccc1O [DIFLUNISAL]	Not Active

target: T1, Angiotensin-converting enzyme (Oryctolagus cuniculus, UniProt P12822); format: tissue-based, Lung; conditions: not given;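 further: enzymatic inhibition of angiotensin-converting enzyme measured with FAPGG as the substrate; in other assays of this panel Not Active means under 50% inhibition at 10 µM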
T1 sequence (P12822 whole entry): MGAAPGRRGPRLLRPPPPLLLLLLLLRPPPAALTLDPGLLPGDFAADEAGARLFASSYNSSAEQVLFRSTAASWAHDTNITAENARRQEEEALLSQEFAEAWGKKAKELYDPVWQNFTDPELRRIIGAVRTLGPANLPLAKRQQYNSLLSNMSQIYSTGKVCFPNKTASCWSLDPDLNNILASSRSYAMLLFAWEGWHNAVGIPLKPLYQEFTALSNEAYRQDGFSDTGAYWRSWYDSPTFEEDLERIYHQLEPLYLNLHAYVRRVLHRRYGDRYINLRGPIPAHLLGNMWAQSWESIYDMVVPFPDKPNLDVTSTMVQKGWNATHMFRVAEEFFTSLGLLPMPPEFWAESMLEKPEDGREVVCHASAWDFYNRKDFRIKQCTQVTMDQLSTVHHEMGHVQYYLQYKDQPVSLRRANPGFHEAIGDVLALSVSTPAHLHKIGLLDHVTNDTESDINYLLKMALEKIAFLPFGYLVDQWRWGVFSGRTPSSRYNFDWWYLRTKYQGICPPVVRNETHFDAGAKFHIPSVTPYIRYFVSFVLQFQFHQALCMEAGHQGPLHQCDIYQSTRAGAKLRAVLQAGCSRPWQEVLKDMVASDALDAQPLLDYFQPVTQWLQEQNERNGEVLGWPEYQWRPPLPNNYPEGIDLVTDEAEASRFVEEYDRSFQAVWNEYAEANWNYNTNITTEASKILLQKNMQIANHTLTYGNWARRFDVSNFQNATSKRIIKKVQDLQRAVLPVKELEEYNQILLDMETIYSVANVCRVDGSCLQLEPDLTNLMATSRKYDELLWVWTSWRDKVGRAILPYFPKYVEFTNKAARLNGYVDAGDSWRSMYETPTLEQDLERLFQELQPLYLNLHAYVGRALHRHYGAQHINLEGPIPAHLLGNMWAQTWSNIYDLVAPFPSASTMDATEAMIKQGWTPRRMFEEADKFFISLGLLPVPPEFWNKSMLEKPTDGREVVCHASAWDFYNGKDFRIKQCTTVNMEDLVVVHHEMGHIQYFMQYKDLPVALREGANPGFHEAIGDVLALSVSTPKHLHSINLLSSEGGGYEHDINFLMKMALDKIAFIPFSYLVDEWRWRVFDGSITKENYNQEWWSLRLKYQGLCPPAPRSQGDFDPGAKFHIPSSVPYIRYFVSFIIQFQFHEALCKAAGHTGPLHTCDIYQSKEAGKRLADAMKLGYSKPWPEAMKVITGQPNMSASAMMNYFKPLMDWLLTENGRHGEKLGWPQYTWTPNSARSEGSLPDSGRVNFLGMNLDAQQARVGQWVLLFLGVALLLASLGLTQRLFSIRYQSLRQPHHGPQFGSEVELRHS

SMILES	IC50
CO/N=C(\C(=O)N[C@@H]1C(=O)N2C(C(=O)O)=C(COC(C)=O)CS[C@H]12)c1csc(N)n1 [CEFOTAXIME]	Not Active
CNC1=Nc2ccc(Cl)cc2C(c2ccccc2)=[N+]([O-])C1 [CHLORDIAZEPOXIDE]	Not Active
Cc1cc(O)cc(C)c1Cl [CHLOROXYLENOL]	Not Active
CCCNC(=O)NS(=O)(=O)c1ccc(Cl)cc1 [CHLORPROPAMIDE]	Not Active
NS(=O)(=O)c1cc(C2(O)NC(=O)c3ccccc32)ccc1Cl (stereo not given) [CHLORTHALIDONE]	Not Active
O=C(O)CC(O)(CC(=O)O)C(=O)O [CITRIC ACID]	Not Active
CN1CCN(C(c2ccccc2)c2ccccc2)CC1 [CYCLIZINE]	Not Active
CN1C[C@@H]2C[C@H]1CN2c1cc2c(cc1F)c(=O)c(C(=O)O)cn2C1CC1 [DANOFLOXACIN]	Not Active
COc1cccc2c1C(=O)c1c(O)c3c(c(O)c1C2=O)C[C@@](O)(C(C)=O)C[C@@H]3O[C@H]1C[C@H](N)[C@H](O)[C@H](C)O1 [DAUNORUBICIN]	Not Active
O=C(O)c1cc(-c2ccc(F)cc2F)ccc1O [DIFLUNISAL]	Not Active

target: Estrogen receptor beta (Homo sapiens, UniProt Q92731); conditions: sf9; further: in other assays of this panel Not Active means under 50% inhibition at 10 µM
Sequence (Q92731 whole entry): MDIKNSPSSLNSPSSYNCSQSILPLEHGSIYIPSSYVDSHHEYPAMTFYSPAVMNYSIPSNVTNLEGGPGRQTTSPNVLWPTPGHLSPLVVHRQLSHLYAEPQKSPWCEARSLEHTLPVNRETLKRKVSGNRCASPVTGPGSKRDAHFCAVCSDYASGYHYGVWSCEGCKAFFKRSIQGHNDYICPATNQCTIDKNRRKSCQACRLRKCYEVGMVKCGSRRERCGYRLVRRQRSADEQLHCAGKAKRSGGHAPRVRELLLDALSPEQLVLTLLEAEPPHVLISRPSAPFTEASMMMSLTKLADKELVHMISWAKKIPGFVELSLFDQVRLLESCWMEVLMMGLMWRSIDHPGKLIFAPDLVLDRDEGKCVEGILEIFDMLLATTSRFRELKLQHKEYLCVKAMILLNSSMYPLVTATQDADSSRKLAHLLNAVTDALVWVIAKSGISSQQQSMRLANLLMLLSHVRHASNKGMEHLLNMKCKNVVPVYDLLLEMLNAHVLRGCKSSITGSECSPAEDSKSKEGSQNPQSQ

SMILES	IC50
CO/N=C(\C(=O)N[C@@H]1C(=O)N2C(C(=O)O)=C(COC(C)=O)CS[C@H]12)c1csc(N)n1 [CEFOTAXIME]	Not Active
CNC1=Nc2ccc(Cl)cc2C(c2ccccc2)=[N+]([O-])C1 [CHLORDIAZEPOXIDE]	Not Active
Cc1cc(O)cc(C)c1Cl [CHLOROXYLENOL]	Not Active
CCCNC(=O)NS(=O)(=O)c1ccc(Cl)cc1 [CHLORPROPAMIDE]	Not Active
NS(=O)(=O)c1cc(C2(O)NC(=O)c3ccccc32)ccc1Cl (stereo not given) [CHLORTHALIDONE]	Not Active
O=C(O)CC(O)(CC(=O)O)C(=O)O [CITRIC ACID]	Not Active
CN1CCN(C(c2ccccc2)c2ccccc2)CC1 [CYCLIZINE]	Not Active
CN1C[C@@H]2C[C@H]1CN2c1cc2c(cc1F)c(=O)c(C(=O)O)cn2C1CC1 [DANOFLOXACIN]	Not Active
COc1cccc2c1C(=O)c1c(O)c3c(c(O)c1C2=O)C[C@@](O)(C(C)=O)C[C@@H]3O[C@H]1C[C@H](N)[C@H](O)[C@H](C)O1 [DAUNORUBICIN]	Not Active
O=C(O)c1cc(-c2ccc(F)cc2F)ccc1O [DIFLUNISAL]	Not Active
